What all share (assay): microbe, parasite or virus in culture
What all share (assay type): cell-based, human immunodeficiency virus type 1 (HIV-1)

For one experiment, the system named is HIV-1 K103N-L100I mutant. Particulars: Human immunodeficiency virus 1, HeLa, read-out: EC50 mutant K103N-L100I, mutant K103N-L100I.
For another experiment, the system named is wild type HIV-1. Particulars: Human immunodeficiency virus 1, Hela-JC53.
The subject of a further experiment is HIV-1 K103N mutant. Conditions: Human immunodeficiency virus 1, HeLa, read-out: EC50 mutant K103N.
Another experiment concerns HIV-1 K103N-Y181C mutant. Particulars: Human immunodeficiency virus 1, HeLa, read-out: EC50 mutant K103N-Y181C.
For another experiment, the system named is HIV-1 Y188L mutant. Particulars: Human immunodeficiency virus 1, HeLa, read-out: EC50 mutant Y188L.

Where only a bound is given, the exact number is not on record here.

As a reminder, the EC50 is the midpoint of the concentration-response curve. Turning to `Cc1cc(-c2ccc(S(N)(=O)=O)cc2)cc(C)c1Oc1nc(Nc2ccc(C#N)cc2)nc2nc[nH]c12` [Example 46, 4′-(2-(4-Cyanophenylamino)-7H-purin-6-yloxy)-3′,5′-dimethylbiphenyl-4-sulfonamide], the EC50 with HIV-1 K103N-L100I mutant is above 10 nM; in the experiment on wild type HIV-1, 1 to 10 nM; in the experiment on HIV-1 K103N mutant, 1 to 10 nM; with HIV-1 K103N-Y181C mutant it was 1 to 10 nM; in the experiment with HIV-1 Y188L mutant, above 10 nM.

For the compound `Cc1cc(-c2cc(C)c(Oc3nc(Nc4ccc(C#N)cc4)nc4ccn(C)c34)c(C)c2)ccn1` [Example 8, 4-(4-(2,6-Dimethyl-4-(2-methylpyridin-4-yl)phenoxy)-5-methyl-5H-pyrrolo[3,2-d]pyrimidin-2-ylamino) benzonitrile], the EC50 in the experiment on HIV-1 K103N-L100I mutant was above 10 nM; in the experiment on wild type HIV-1, 1 to 10 nM; with HIV-1 K103N mutant it was above 10 nM; with HIV-1 K103N-Y181C mutant, above 10 nM; with HIV-1 Y188L mutant, above 10 nM.

Turning to `Cc1cc(-c2ccc(S(N)(=O)=O)cc2)cc(C)c1Oc1nc(Nc2ccc(C#N)cc2)nc2ncn(C)c12` [Example 53, 4′-(2-(4-Cyanophenylamino)-7-methyl-7H-purin-6-yloxy)-3′,5′-dimethylbiphenyl-4-sulfonamide], the EC50 in the experiment on HIV-1 K103N-L100I mutant was 1 to 10 nM; in the experiment with wild type HIV-1 it was 1 to 10 nM; with HIV-1 K103N mutant it was 1 to 10 nM; in the experiment with HIV-1 K103N-Y181C mutant, 1 to 10 nM; in the experiment with HIV-1 Y188L mutant it was above 10 nM.

Consider `Cc1cc(-c2ccnc(C#N)c2)cc(C)c1Oc1nc(Nc2ccc(C#N)cc2)nc2ccn(C)c12` [Example 6, 4-(4-(2-(4-Cyanophenylamino)-5-methyl-5H-pyrrolo[3,2-d]pyrimidin-4-yloxy)-3,5-dimethylphenyl)picolinonitrile], for which the concentration for a half-maximal effect (EC50) in the experiment with HIV-1 K103N-L100I mutant was 1 to 10 nM; in the experiment on wild type HIV-1, 1 to 10 nM; in the experiment on HIV-1 K103N mutant, 1 to 10 nM; in the experiment on HIV-1 K103N-Y181C mutant it was above 10 nM; in the experiment on HIV-1 Y188L mutant, above 10 nM.

As for `Cc1cc(-c2ccc(C(N)=O)cc2)cc(C)c1Oc1nc(Nc2ccc(C#N)cc2)nc2ncn(C)c12` [Example 111, 4′-(2-(4-Cyanophenylamino)-7-methyl-7H-purin-6-yloxy)-3′,5′-dimethylbiphenyl-4-carboxamide], the EC50 in the experiment on HIV-1 K103N-L100I mutant was 1 to 10 nM; in the experiment with wild type HIV-1 it was 1 to 10 nM; in the experiment with HIV-1 K103N mutant it was 1 to 10 nM; in the experiment on HIV-1 K103N-Y181C mutant it was above 10 nM; with HIV-1 Y188L mutant it was above 10 nM.

Regarding `Cc1cc(-c2cccc(C#N)c2)cc(C)c1Oc1nc(Nc2ccc(C#N)cc2)nc2ccn(C)c12` [Example 16, 4′-(2-(4-Cyanophenylamino)-5-methyl-5H-pyrrolo[3,2-d]pyrimidin-4-yloxy)-3′,5′-dimethylbiphenyl-3-carbonitrile], the EC50 in the experiment with HIV-1 K103N-L100I mutant is above 10 nM; in the experiment with wild type HIV-1, 1 to 10 nM; in the experiment with HIV-1 K103N mutant it was above 10 nM; with HIV-1 K103N-Y181C mutant, above 10 nM; in the experiment with HIV-1 Y188L mutant it was above 10 nM.

As for `Cc1cc(-c2ccnc(F)c2)cc(C)c1Oc1nc(Nc2ccc(C#N)cc2)nc2ccn(C)c12` [Example 3, 4-(4-(4-(2-Fluoropyridin-4-yl)-2,6-dimethylphenoxy)-5-methyl-5H-pyrrolo[3,2-d]pyrimidin-2-ylamino) benzonitrile], the concentration for a half-maximal effect (EC50) with HIV-1 K103N-L100I mutant is 1 to 10 nM; in the experiment with wild type HIV-1, 1 to 10 nM; in the experiment on HIV-1 K103N mutant, 1 to 10 nM; with HIV-1 K103N-Y181C mutant, above 10 nM; in the experiment with HIV-1 Y188L mutant it was above 10 nM.

Turning to `Cc1cc(-c2ccc(C(N)=O)cn2)cc(C)c1Oc1nc(Nc2ccc(C#N)cc2)nc2ccn(C)c12` [Example 61, 6-(4-(2-(4-Cyanophenylamino)-5-methyl-5H-pyrrolo[3,2-d]pyrimidin-4-yloxy)-3,5-dimethyl-phenyl)nicotinamide], the EC50 was 1 to 10 nM with HIV-1 K103N-L100I mutant; 1 to 10 nM with wild type HIV-1; 1 to 10 nM in the experiment with HIV-1 K103N mutant; above 10 nM with HIV-1 K103N-Y181C mutant; 1 to 10 nM with HIV-1 Y188L mutant.

With `Cc1cc(-c2ccncc2)cc(C)c1Oc1nc(Nc2ccc(C#N)cc2)nc2ccn(C)c12` [Example 1, 4-(4-(2,6-Dimethyl-4-(pyridin-4-yl)phenoxy)-5-methyl-5H-pyrrolo[3,2-d]pyrimidin-2-ylamino)benzonitrile], the EC50 with HIV-1 K103N-L100I mutant is 1 to 10 nM; in the experiment with wild type HIV-1, 1 to 10 nM; in the experiment on HIV-1 K103N mutant, below 1 nM; with HIV-1 K103N-Y181C mutant, 1 to 10 nM; with HIV-1 Y188L mutant, 1 to 10 nM.

Consider `Cc1cc(-c2ccc(C(N)=O)cn2)cc(C)c1Oc1nc(Nc2ccc(C#N)cc2)nc2ncn(C)c12` [Example 123, 6-(4-(2-(4-cyanophenylamino)-7-methyl-7H-purin-6-yloxy)-3,5-dimethylphenyl)nicotinamide], for which the concentration giving a half-maximal response (EC50) is above 10 nM in the experiment with HIV-1 K103N-L100I mutant; 1 to 10 nM with wild type HIV-1; 1 to 10 nM in the experiment with HIV-1 K103N mutant; above 10 nM in the experiment with HIV-1 K103N-Y181C mutant; 1 to 10 nM with HIV-1 Y188L mutant.

The values above are taken from patent publication US8207178B2 (priority 2007, dated 2012).
